Experimental data from ChEMBL document CHEMBL1139660, “Imidazo[1,2-b][1,2,4]triazines as alpha2/alpha3 subtype selective GABA A agonists for the treatment of anxiety” (Bioorg Med Chem Lett, 2006).

Assays:
[1] = target: T1, GABA-A receptor; alpha-5/beta-3/gamma-2 (Homo sapiens, UniProt P18507+P28472+P31644); test: Displacement of [3H]Ro 15-1788 from recombinant human GABA-Aalpha5 receptor plus beta-3-gamma-2 expressed in L(tk-) cells; type: cell-based
T1 sequence (P18507 whole entry): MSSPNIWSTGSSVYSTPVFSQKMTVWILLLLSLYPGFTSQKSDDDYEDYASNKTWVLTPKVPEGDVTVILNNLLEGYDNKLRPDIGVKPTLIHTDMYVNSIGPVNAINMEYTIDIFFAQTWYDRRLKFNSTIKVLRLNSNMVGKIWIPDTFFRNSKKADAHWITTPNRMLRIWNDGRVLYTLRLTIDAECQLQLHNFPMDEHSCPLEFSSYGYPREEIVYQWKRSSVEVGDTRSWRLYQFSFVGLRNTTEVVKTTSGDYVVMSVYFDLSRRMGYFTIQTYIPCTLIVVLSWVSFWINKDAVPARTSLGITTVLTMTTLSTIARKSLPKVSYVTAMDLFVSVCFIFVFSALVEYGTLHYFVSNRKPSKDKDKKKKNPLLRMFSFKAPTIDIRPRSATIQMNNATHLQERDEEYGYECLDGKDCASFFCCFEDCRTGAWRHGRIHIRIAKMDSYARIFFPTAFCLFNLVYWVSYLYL
T1 sequence (P28472 whole entry): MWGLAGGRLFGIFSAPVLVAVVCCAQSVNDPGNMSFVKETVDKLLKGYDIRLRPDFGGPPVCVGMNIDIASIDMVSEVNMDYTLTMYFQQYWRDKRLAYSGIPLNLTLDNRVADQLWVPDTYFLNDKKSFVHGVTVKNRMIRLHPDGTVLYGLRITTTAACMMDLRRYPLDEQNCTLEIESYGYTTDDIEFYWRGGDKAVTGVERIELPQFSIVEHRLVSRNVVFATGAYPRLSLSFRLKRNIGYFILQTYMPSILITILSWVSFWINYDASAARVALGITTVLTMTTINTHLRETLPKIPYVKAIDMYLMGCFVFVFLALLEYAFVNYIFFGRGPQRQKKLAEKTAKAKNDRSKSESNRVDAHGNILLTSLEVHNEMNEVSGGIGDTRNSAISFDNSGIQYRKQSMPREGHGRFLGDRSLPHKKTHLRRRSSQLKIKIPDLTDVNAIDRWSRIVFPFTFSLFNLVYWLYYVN
T1 sequence (P31644 whole entry): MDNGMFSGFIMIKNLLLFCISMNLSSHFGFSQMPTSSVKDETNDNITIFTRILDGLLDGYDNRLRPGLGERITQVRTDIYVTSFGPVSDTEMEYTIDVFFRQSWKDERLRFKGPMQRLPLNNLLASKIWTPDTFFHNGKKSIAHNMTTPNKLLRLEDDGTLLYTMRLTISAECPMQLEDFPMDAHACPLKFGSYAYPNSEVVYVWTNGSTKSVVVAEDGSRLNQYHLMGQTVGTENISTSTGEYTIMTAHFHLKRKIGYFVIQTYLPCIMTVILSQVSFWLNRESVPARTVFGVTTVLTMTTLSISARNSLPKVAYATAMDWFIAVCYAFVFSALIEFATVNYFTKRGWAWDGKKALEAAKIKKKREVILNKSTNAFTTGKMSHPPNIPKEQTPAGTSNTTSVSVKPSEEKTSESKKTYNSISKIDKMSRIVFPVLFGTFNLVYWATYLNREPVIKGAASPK

[2] = target: T2, GABA-A receptor; alpha-1/beta-3/gamma-2 (Homo sapiens) (UniProt P14867+P18507+P28472); test: Efficacy against recombinant human GABA-Aalpha1 receptor plus beta-3-gamma-2 expressed in L(tk-) cells by modulation of chloride ion flux relative to chlordiazepoxide; type: cell-based
[3] = target: T3, GABA-A receptor; alpha-3/beta-3/gamma-2 (Homo sapiens) (UniProt P18507+P28472+P34903); test: Efficacy against recombinant human GABA-Aalpha3 receptor plus beta-3-gamma-2 expressed in L(tk-) cells by modulation of chloride ion flux relative to chlordiazepoxide; type: functional, cell-based
[4] = target: T4, GABA-A receptor; alpha-1/beta-3/gamma-2 (Homo sapiens, UniProt P14867+P18507+P28472); test: Displacement of [3H]Ro 15-1788 from recombinant human GABA-Aalpha1 receptor plus beta3gamma2 expressed in mouse L(tk-) cells; type: cell-based
T4 sequence (P14867 whole entry): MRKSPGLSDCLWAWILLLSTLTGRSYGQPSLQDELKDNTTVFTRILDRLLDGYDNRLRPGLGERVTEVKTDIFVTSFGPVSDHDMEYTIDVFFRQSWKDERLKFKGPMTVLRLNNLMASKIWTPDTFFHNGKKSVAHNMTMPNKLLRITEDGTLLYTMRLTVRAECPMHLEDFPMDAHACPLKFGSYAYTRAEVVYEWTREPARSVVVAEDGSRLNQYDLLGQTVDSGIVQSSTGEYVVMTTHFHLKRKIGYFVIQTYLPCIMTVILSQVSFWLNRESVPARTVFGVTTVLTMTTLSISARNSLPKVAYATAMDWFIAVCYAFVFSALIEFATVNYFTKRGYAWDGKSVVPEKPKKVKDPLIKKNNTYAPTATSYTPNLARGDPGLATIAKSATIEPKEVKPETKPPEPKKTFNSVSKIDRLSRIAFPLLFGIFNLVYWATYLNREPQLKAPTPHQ
T4 sequence (P18507 whole entry): T1 sequence (P18507 whole entry)
T4 sequence (P28472 whole entry): T1 sequence (P28472 whole entry)

[5] = target: T5, GABA-A receptor; alpha-3/beta-3/gamma-2 (Homo sapiens, UniProt P18507+P28472+P34903); test: Displacement of [3H]Ro 15-1788 from recombinant human GABA-Aalpha3 receptor plus beta-3-gamma-2 expressed in L(tk-) cells; type: cell-based
T5 sequence (P18507 whole entry): T1 sequence (P18507 whole entry)
T5 sequence (P28472 whole entry): T1 sequence (P28472 whole entry)
T5 sequence (P34903 whole entry): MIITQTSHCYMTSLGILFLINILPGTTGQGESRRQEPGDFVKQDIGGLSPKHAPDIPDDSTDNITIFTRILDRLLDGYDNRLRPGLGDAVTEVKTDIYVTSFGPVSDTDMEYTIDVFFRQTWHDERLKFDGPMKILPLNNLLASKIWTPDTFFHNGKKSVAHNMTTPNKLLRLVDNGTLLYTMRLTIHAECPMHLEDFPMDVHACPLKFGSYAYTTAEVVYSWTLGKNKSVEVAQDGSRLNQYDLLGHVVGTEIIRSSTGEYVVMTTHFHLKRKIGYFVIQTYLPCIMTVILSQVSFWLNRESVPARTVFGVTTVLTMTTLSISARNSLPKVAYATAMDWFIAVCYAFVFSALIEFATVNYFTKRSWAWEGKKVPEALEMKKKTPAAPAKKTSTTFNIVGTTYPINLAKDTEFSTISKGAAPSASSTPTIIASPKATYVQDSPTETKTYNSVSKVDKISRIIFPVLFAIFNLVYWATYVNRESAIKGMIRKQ

[6] = target: T2, GABA-A receptor; alpha-1/beta-3/gamma-2 (Homo sapiens); test: Efficacy against recombinant human GABA-Aalpha1 receptor plus beta-3-gamma-2 expressed in L(tk-) cells by whole cell patch clamp method; type: functional, cell-based
[7] = target: T3, GABA-A receptor; alpha-3/beta-3/gamma-2 (Homo sapiens); test: Efficacy against recombinant human GABA-Aalpha3 receptor plus beta-3-gamma-2 expressed in L(tk-) cells by whole cell patch clamp method relative to chlordiazepoxide; type: functional, cell-based
Rattus norvegicus = test: Plasma clearance in Sprague-Dawley rat at 1 mg/kg, iv or 1 mg/kg, po; type: organism-based
[8] = Volume of distribution in Sprague-Dawley rat at 1 mg/kg, iv or 1 mg/kg, po; type: ADME, organism-based; conditions: in vivo, read-out: Vdss
[9] = Oral bioavailability in Beagle dog at 1 mg/kg, iv or 1 mg/kg, po; type: ADME, organism-based, Canis lupus familiaris; conditions: in vivo
[10] = Plasma clearance in Beagle dog at 1 mg/kg, iv or 1 mg/kg, po; type: ADME, organism-based, Canis lupus familiaris
[11] = Half life in Beagle dog at 1 mg/kg, iv or 1 mg/kg, po; type: ADME, organism-based, Canis lupus familiaris; conditions: in vivo
[12] = Volume of distribution in Beagle dog at 1 mg/kg, iv or 1 mg/kg, po; type: ADME, organism-based, Canis lupus familiaris; conditions: in vivo, read-out: Vdss
[13] = target: T6, GABA-A receptor; alpha-2/beta-3/gamma-2 (Homo sapiens, UniProt P18507+P28472+P47869); test: Displacement of [3H]Ro 15-1788 from recombinant human GABA-Aalpha2 receptor plus beta-3-gamma-2 expressed in mouse L(tk-) cells; type: cell-based
T6 sequence (P18507 whole entry): T1 sequence (P18507 whole entry)
T6 sequence (P28472 whole entry): T1 sequence (P28472 whole entry)
T6 sequence (P47869 whole entry): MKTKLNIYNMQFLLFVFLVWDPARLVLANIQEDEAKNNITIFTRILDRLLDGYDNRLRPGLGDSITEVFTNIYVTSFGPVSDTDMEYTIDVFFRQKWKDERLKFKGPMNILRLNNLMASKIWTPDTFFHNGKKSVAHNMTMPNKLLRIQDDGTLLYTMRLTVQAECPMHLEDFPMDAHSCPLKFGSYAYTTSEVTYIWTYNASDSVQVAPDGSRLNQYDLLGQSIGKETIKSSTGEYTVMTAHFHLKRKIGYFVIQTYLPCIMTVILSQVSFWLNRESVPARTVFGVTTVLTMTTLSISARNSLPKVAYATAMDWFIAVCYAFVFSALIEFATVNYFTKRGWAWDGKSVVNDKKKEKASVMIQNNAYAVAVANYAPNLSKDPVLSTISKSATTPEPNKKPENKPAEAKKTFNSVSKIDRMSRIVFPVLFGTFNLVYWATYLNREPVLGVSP

Compound | Ki [1] [nM] | Efficacy [2] | Efficacy [3] | Ki [4] [nM] | Ki [5] [nM] | Efficacy [6] | Efficacy [7] | CL (mL.min-1.kg-1) (Rattus norvegicus) | Vd [8] [L/kg] | bioavailability [9] [%] | clearance [10] [mL/min/kg] | half-life [11] [min] | Vd [12] [L/kg] | Ki [13] [nM]
CC(C)(O)c1ccn2c(-c3ccc(F)c(-c4ccc(F)cn4)c3)cnc2n1 | 0.42 | 0.38 | 0.57 | 1.6 | 1.94 | 0.4 | – | – | – | – | – | – | – | –
CC(C)(O)c1ccn2c(-c3ccc(F)c(-c4ccncc4)c3)cnc2n1 | 0.31 | 0.18 | 0.47 | 0.68 | 2.25 | 0.42 | – | – | – | – | – | – | – | –
CC(C)(O)c1ccn2c(-c3ccc(F)c(-c4ccncc4C#N)c3)cnc2n1 | 0.14 | 0.3 | 0.59 | 0.6 | 0.28 | – | – | – | – | – | – | – | – | –
CC(C)(O)c1cnn2c(-c3ccc(F)c(-c4cccnc4)c3)cnc2n1 | 0.5 | – | – | 0.81 | 1.63 | 0 | 0.24 | – | – | – | – | – | – | –
CC(C)(O)c1cnn2c(-c3ccc(F)c(-c4ncncc4C#N)c3)cnc2n1 | – | – | – | 0.67 | 3.3 | 0.01 | 0.34 | – | – | – | – | – | – | –
CC(C)(O)c1ccn2c(-c3ccc(F)c(-c4cccnc4)c3)cnc2n1 | – | 0.06 | 0.5 | – | – | 0.05 | 0.53 | 9.1 | 1 | 46 | 8.1 | 60 | 0.6 | –
CC(C)(O)c1cnn2c(-c3ccc(F)c(-c4ncccc4F)c3)cnc2n1 | 1.57 | – | – | 2.01 | 3.42 | 0.24 | 0.52 | – | – | – | – | – | – | –
CC(C)(O)c1cnn2c(-c3ccc(F)c(-c4ccc(F)cn4)c3)cnc2n1 | 1.24 | – | – | 1.45 | 2.77 | 0.15 | 0.5 | – | – | – | – | – | – | 2.3
